# Measured values reported in patent US9346815B2, “5-chloro-2-difluoromethoxyphenyl pyrazolopyrimidine compounds, compositions and methods of use thereof” (Genentech, Inc., priority 2014, dated 2016).
# Tests used:
# [1] = target: isolated recombinant JAK1 kinase domain (Homo sapiens (Human), UniProt P23458); assay: JAK1 enzyme assay (Caliper LabChip, peptide phosphorylation); type: biochemical; conditions: isolated recombinant JAK1 kinase domain, 25 μM ATP
# [2] = tested on: JAK1-dependent STAT6 phosphorylation downstream of IL-13 stimulation in TF-1 human erythroleukemia cells; assay: JAK1 pathway assay in TF-1 cells (IL-13-pSTAT6, MSD); type: cell-based; conditions: Homo sapiens, TF-1, TF-1 cells, read-out: IL13-pSTAT6 EC50_TF-1
# Description: JAK1 Pathway Assay in Cell Lines was Carried Out as Follows:
# Inhibitor potency (EC50) was determined in cell-based assays designed to measure JAK1 dependent STAT phosphorylation.
# In one assay approach, TF-1 human erythroleukemia cells obtained from the American Type Culture Collection (ATCC; Manassas, Va.) were used to measure JAK1-dependent STAT6 phosphorylation downstream of IL-13 stimulation. Prior to use in the assays, TF-1 cells were starved of GM-CSF overnight in OptiMEM medium (Life Technologies, Grand Island, N.Y.) supplemented with 0.5% charcoal/dextran stripped fetal bovine serum (FBS), 0.1 mM non-essential amino acids (NEAA), and 1 mM sodium pyruvate. The assays were run in 384-well plates in serum-free OptiMEM medium using 300,000 cells per well. In a second assay approach, BEAS-2B human bronchial epithelial cells obtained from ATCC were plated at 100,000 cells per well of a 96-well plate one day prior to the experiment. The BEAS-2B assay was run in complete growth medium (bronchial epithelial basal medium plus bulletkit; Lonza; Basel, Switzerland).
# Test compounds were serially diluted 1:2 in DMSO and then diluted 1:50 in medium just before use. Diluted compounds were added to the cells, for a final DMSO concentration of 0.2%, and incubated for 30 min (for the TF-1 assay) or 1 hr (for the BEAS-2B assay) at 37° C. Then, cells were stimulated with human recombinant cytokine at their respective EC90 concentrations, as previously determined for each individual lot. Cells were stimulated with IL-13 (R&D Systems, Minneapolis, Minn.) for 15 min at 37° C. The TF-1 cell reactions were stopped by the direct addition of 10× lysis buffer (Cell Signaling Technologies, Danvers, Mass.), whereas the BEAS-2B cell incubations were halted by the removal of medium and addition of 1× lysis buffer. The resultant samples were frozen in the plates at −80° C. Compound mediated inhibition of STAT6 phosphorylation was measured in the cell lysates using MesoScale Discovery (MSD) technology (Gaithersburg, Md.).
# [3] = target: isolated recombinant JAK2 kinase domain (Homo sapiens (Human), UniProt O60674); assay: JAK2 enzyme assay (Caliper LabChip, peptide phosphorylation); type: biochemical; conditions: 25 μM ATP
# Sequence of isolated recombinant JAK2 kinase domain (O60674 849-1124): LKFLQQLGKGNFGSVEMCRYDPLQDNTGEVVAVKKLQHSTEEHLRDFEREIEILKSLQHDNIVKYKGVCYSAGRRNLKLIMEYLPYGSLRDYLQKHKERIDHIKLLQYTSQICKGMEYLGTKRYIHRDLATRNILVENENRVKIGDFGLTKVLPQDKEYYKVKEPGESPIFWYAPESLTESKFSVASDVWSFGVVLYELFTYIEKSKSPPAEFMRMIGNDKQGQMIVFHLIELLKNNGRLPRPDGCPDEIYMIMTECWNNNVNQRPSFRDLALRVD
# Sequence of isolated recombinant JAK1 kinase domain (P23458 875-1153): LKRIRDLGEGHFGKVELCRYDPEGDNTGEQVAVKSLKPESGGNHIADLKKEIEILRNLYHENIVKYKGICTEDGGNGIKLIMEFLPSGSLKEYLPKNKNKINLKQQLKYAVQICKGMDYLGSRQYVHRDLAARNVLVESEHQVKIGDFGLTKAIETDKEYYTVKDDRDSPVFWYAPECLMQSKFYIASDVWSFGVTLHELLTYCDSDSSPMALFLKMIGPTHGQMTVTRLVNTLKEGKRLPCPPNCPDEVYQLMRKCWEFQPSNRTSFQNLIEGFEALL
Compound,Ki [1],EC50 [2],Ki [3]
"CN(CCOc1ccccc1)C1CCN(C(=O)Cn2cc(NC(=O)c3cnn4cccnc34)c(-c3cc(Cl)ccc3OC(F)F)n2)CC1 [Example 100, N-[3-[5-chloro-2-(difluoromethoxy)phenyl]-1-[2-[4-[methyl(2-phenoxyethyl)amino]-1-piperidyl]-2-oxo-ethyl]pyrazol-4-yl]pyrazolo[1,5-a]pyrimidine-3-carboxamide]",0.84 nM,5.4 nM,2.01 nM
"CN(CCc1ccccc1)C1CCN(c2nc(-c3cc(Cl)ccc3OC(F)F)c(NC(=O)c3cnn4cccnc34)s2)CC1 [Example 192, N-[4-[5-chloro-2-(difluoromethoxy)phenyl]-2-[4-[methyl(2-phenylethyl)amino]-1-piperidyl]thiazol-5-yl]pyrazolo[1,5-a]pyrimidine-3-carboxamide]",5 nM,272 nM,3.72 nM
"O=C(Nc1cn(CC(=O)N2C[C@H]3CN(CC4CCOCC4)C[C@H]3C2)nc1-c1cc(Cl)ccc1OC(F)F)c1cnn2cccnc12 [Example 26, N-[1-[2-[(3aR,6aS)-2-(tetrahydropyran-4-ylmethyl)-1,3,3a,4,6,6a-hexahydropyrrolo[3,4-c]pyrrol-5-yl]-2-oxo-ethyl]-3-[5-chloro-2-(difluoromethoxy)phenyl]pyrazol-4-yl]pyrazolo[1,5-a]pyrimidine-3-carboxamide]",0.77 nM,6.2 nM,0.94 nM
"O=C(Nc1cn(CC(=O)N2C[C@H]3CN(CCCN4CCOC4=O)C[C@H]3C2)nc1-c1cc(Cl)ccc1OC(F)F)c1cnn2cccnc12 [Example 32, N-[1-[2-[(3aS,6aR)-2-[3-(2-oxooxazolidin-3-yl)propyl]-1,3,3a,4,6,6a-hexahydropyrrolo[3,4-c]pyrrol-5-yl]-2-oxo-ethyl]-3-[5-chloro-2-(difluoromethoxy)phenyl]pyrazol-4-yl]pyrazolo[1,5-a]pyrimidine-3-carboxamide]",0.46 nM,98.5 nM,0.5 nM
"O=C(Nc1cn(CC(=O)N2CCC(NCCc3ccc(Cl)cc3)CC2)nc1-c1cc(Cl)ccc1OC(F)F)c1cnn2cccnc12 [Example 92, N-[3-[5-chloro-2-(difluoromethoxy)phenyl]-1-[2-[4-[2-(4-chlorophenyl)ethylamino]-1-piperidyl]-2-oxo-ethyl]pyrazol-4-yl]pyrazolo[1,5-a]pyrimidine-3-carboxamide]",0.92 nM,55.6 nM,2.03 nM
"Nc1nn2cccnc2c1C(=O)Nc1cn(C2CCN(CCCN3CCNC3=O)CC2)nc1-c1cc(Cl)ccc1OC(F)F [Example 163, 2-amino-N-[3-[5-chloro-2-(difluoromethoxy)phenyl]-1-[1-[3-(2-oxoimidazolidin-1-yl)propyl]-4-piperidyl]pyrazol-4-yl]pyrazolo[1,5-a]pyrimidine-3-carboxamide]",0.69 nM,7.3 nM,0.19 nM
"Nc1nn2cccnc2c1C(=O)Nc1cn(CC(=O)N2C[C@H]3CN(CC4CCC(F)(F)CC4)C[C@H]3C2)nc1-c1cc(Cl)ccc1OC(F)F [Example 58, N-[1-[2-[(3aS,6aR)-2-[(4,4-difluorocyclohexyl)methyl]-1,3,3a,4,6,6a-hexahydropyrrolo[3,4-c]pyrrol-5-yl]-2-oxo-ethyl]-3-[5-chloro-2-(difluoromethoxy)phenyl]pyrazol-4-yl]-2-amino-pyrazolo[1,5-a]pyrimidine-3-carboxamide]",0.6 nM,25.6 nM,0.33 nM
"COCCN(C)C1CCN(C(=O)Cn2cc(NC(=O)c3cnn4cccnc34)c(-c3cc(Cl)ccc3OC(F)F)n2)CC1 [Example 68, N-[3-[5-chloro-2-(difluoromethoxy)phenyl]-1-[2-[4-[2-methoxyethyl(methyl)amino]-1-piperidyl]-2-oxo-ethyl]pyrazol-4-yl]pyrazolo[1,5-a]pyrimidine-3-carboxamide]",0.74 nM,13.4 nM,1.68 nM
"O=C(Nc1cn(CC(=O)N2C[C@H]3CN(CC4CCN(C(=O)OCc5ccccc5)CC4)C[C@H]3C2)nc1-c1cc(Cl)ccc1OC(F)F)c1cnn2cccnc12 [Example 17, benzyl 4-[[(3aR,6aS)-5-[2-[3-[5-chloro-2-(difluoromethoxy)phenyl]-4-(pyrazolo[1,5-a]pyrimidine-3-carbonylamino)pyrazol-1-yl]acetyl]-1,3,3a,4,6,6a-hexahydropyrrolo[3,4-c]pyrrol-2-yl]methyl]piperidine-1-carboxylate]",0.71 nM,80.9 nM,0.85 nM
"CN(Cc1cccc(C(F)(F)F)c1)C1CCN(C(=O)Cn2cc(NC(=O)c3cnn4cccnc34)c(-c3cc(Cl)ccc3OC(F)F)n2)CC1 [Example 128, N-[3-[5-chloro-2-(difluoromethoxy)phenyl]-1-[2-[4-[methyl-[[3-(trifluoromethyl)phenyl]methyl]amino]-1-piperidyl]-2-oxo-ethyl]pyrazol-4-yl]pyrazolo[1,5-a]pyrimidine-3-carboxamide]",1.12 nM,42.5 nM,3.09 nM
"CN1CCN(c2ccc(-c3nc(-c4cc(Cl)ccc4OC(F)F)c(NC(=O)c4cnn5cccnc45)s3)cc2)CC1 [Example 258, N-[4-[5-chloro-2-(difluoromethoxy)phenyl]-2-[4-(4-methylpiperazin-1-yl)phenyl]thiazol-5-yl]pyrazolo[1,5-a]pyrimidine-3-carboxamide]",1.17 nM,71 nM,0.72 nM
"CN1CCN(CCCN2CCC(n3cc(NC(=O)c4cnn5cccnc45)c(-c4cc(Cl)ccc4OC(F)F)n3)CC2)C1=O [Example 154, N-[3-[5-chloro-2-(difluoromethoxy)phenyl]-1-[1-[3-(3-methyl-2-oxo-imidazolidin-1-yl)propyl]-4-piperidyl]pyrazol-4-yl]pyrazolo[1,5-a]pyrimidine-3-carboxamide]",1.42 nM,2.7 nM,0.23 nM
"Nc1nn2cccnc2c1C(=O)Nc1cn(C2CCN(CCCC(=O)N3CCCCC3)CC2)nc1-c1cc(Cl)ccc1OC(F)F [Example 143, 2-amino-N-[3-[5-chloro-2-(difluoromethoxy)phenyl]-1-[1-[4-oxo-4-(1-piperidyl)butyl]-4-piperidyl]pyrazol-4-yl]pyrazolo[1,5-a]pyrimidine-3-carboxamide]",0.76 nM,20.4 nM,0.18 nM
"O=C(Nc1cn(CC(=O)N2C[C@H]3CN(CC4CCN(C(=O)C5CCOCC5)CC4)C[C@H]3C2)nc1-c1cc(Cl)ccc1OC(F)F)c1cnn2cccnc12 [Example 35, N-[1-[2-[(3aR,6aS)-2-[[1-(tetrahydropyran-4-carbonyl)-4-piperidyl]methyl]-1,3,3a,4,6,6a-hexahydropyrrolo[3,4-c]pyrrol-5-yl]-2-oxo-ethyl]-3-[5-chloro-2-(difluoromethoxy)phenyl]pyrazol-4-yl]pyrazolo[1,5-a]pyrimidine-3-carboxamide]",0.51 nM,235 nM,0.73 nM
"CN(C)CC1(c2ccccc2)CCN(C(=O)Cn2cc(NC(=O)c3cnn4cccnc34)c(-c3cc(Cl)ccc3OC(F)F)n2)CC1 [Example 80, N-[3-[5-chloro-2-(difluoromethoxy)phenyl]-1-[2-[4-[(dimethylamino)methyl]-4-phenyl-1-piperidyl]-2-oxo-ethyl]pyrazol-4-yl]pyrazolo[1,5-a]pyrimidine-3-carboxamide]",0.43 nM,4.9 nM,0.87 nM
"CN1CCN(CCCN2CCC(n3cc(NC(=O)c4c(N)nn5cccnc45)c(-c4cc(Cl)ccc4OC(F)F)n3)CC2)C1=O [Example 164, 2-amino-N-[3-[5-chloro-2-(difluoromethoxy)phenyl]-1-[1-[3-(3-methyl-2-oxo-imidazolidin-1-yl)propyl]-4-piperidyl]pyrazol-4-yl]pyrazolo[1,5-a]pyrimidine-3-carboxamide]",0.44 nM,5.6 nM,0.06 nM
"CN(CCOc1ccccc1Cl)C1CCN(C(=O)Cn2cc(NC(=O)c3cnn4cccnc34)c(-c3cc(Cl)ccc3OC(F)F)n2)CC1 [Example 106, N-[3-[5-chloro-2-(difluoromethoxy)phenyl]-1-[2-[4-[2-(2-chlorophenoxy)ethyl-methyl-amino]-1-piperidyl]-2-oxo-ethyl]pyrazol-4-yl]pyrazolo[1,5-a]pyrimidine-3-carboxamide]",1.09 nM,15.5 nM,2.29 nM
